Laboratory results taken from publication PMC5349447, “Applying a high-throughput fluorescence polarization assay for the discovery of chemical probes blocking La:RNA interactions in vitro and in cells” (PLoS ONE, 2017).
pIC50: −log10 of the molar value.

Molecular target: T1, La protein:fD1-RNA (Homo sapiens, UniProt P05455)
T1 construct: His; made in house; host or cells: E. coli BL21
T1 sequence (P05455 1-408): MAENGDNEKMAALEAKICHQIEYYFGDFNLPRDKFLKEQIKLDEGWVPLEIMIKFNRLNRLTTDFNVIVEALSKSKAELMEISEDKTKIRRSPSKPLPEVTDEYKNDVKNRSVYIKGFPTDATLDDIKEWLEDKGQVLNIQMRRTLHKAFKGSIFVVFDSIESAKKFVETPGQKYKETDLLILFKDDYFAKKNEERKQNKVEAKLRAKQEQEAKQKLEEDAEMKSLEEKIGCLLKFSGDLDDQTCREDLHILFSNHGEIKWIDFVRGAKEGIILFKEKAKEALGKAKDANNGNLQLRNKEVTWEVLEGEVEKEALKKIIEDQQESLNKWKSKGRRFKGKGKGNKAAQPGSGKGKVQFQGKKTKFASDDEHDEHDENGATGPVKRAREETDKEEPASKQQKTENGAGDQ
Test: La:RNA fluorescence polarization assay (La-FP)
Assay type: binding
Details: for pIC50: 1.35 μM La, 0.8 μM fD1-RNA, compound at 25, 50, 100, 1000 μM, read-out: IC50, La:fD1-RNA complex formation (La-FP); for inhibition at 100 µM: compound 100 μM; for inhibition at 1000 µM: compound 1000 μM
Protocol: Measurements of fluorescence and fluorescence polarization were performed on a Spectramax M5 microplate reader (Molecular Devices, Sunnyvale, CA) with the excitation and emission wavelengths 544 nm and 590 nm, respectively. To block unwanted residual excitation light and minimize background interference, a 570 nm “cutoff” filter was applied. Black shallow 384-well micro plates (ProxiPlate ^TM– 384 F Plus, PerkinElmer) were used to record data. To minimize the polarization effects from fluorophore, which may be bound to the surface of the well, both excitation and emission data were recorded from the top of the well. Reading time was 100 ms per well. Millipolarization units (mP) were used to express fluorescence polarization values defined by the equation mP = 1000 x [(Iv—GIh) / (Iv+ GIh)], where Iv and Ih are parallel and perpendicular emission intensity measurements corrected for background (buffer), and G-factor.
The ratio of sensitivities of the detection system for vertically and horizontally polarized light G = Iv/Ih was determined with dilution series of the fluorescence-labeled cyclin D1-RNA oligonucleotide (fD1) only (free-tracer) using SoftMax® Pro Data Acquisition & Analysis Software (Molecular Devices, Sunnyvale, CA). The assay window–the specific binding ΔmP–was defined as the difference between fluorescence polarization (mP) for La protein:fD1 reactions (mPs) and fluorescence polarization of free-fD1 reactions (mPfree): ΔmP = mPs−mPfree.
The assay was formatted using 10 μl reaction volume per well. Assay buffer (20 mM Tris-HCl pH 7.5, 3.0 mM MgCl2, 0.5 mM EDTA, 150 mM NaCl, 0.05% IGEPAL, BGG 100 μg/ml (BGG = Bovine γ-Globulin or γ-Globulins from bovine blood)) was used to dilute all ingredients. Detergent was added to prevent the potential aggregation of small compounds. The aggregation of small compounds can lead to false-positive results in HTS approaches and is indicated by a high Hill factor[50]. To find the optimal concentration of the free fluorescent tracer (fD1), which gives low and stable fluorescence polarization signal, and to calculate the G-factor, 100–1000 nM fD1 dilution series were measured in quadruplicates. Using variable fD1 concentrations, the optimal tracer:protein ratio was determined in binding experiments with increasing concentrations of La protein (1.35–1350 nM). To start the reaction, fD1 and La protein stock solutions were mixed into each well. Each reaction was performed in quadruplicates. After shaking the plate for 2 min followed by 15 min incubation at room temperature, fluorescence polarization signals were recorded as described above. Fluorescence polarization measurements were performed on different days using 7 microtiter plates (111 samples total).
High-throughput screening against the ChemBridge DIVERSet library was carried out under the following conditions: 1 μl of each compound (dissolved in 100% DMSO) was pre-incubated with 8 μl of La protein for 30 min at room temperature, followed by an additional 15 min incubation with 1 μl of fD1 (final concentration of La, fD1, and DMSO in the 10 μl reaction: 1.35 μM La, 0.8 μM fD1, 10% DMSO). The reactions were performed in duplicate. In addition to samples with the compounds, each plate contained 2 background wells (10 μl buffer only), and at least 4 wells for Ps (La and fD1) and Pfree (fD1 alone) reactions. All samples included 10% DMSO. Pilot screening was carried out with 10 mM cocktails of 10 compounds (giving a final concentration of 100 μM for each compound). […] Using the same fluorescence polarization assay format, La protein (1.35 μM) was incubated with each potential hit compound at 25, 50, 100, 1000 μM (in triplicate) for 30 min, followed by an additional 15 min incubation with 0.8 μM fD1. Data points for specific binding (B) were normalized to the maximum specific binding (Bmax), which defines complete saturation of the La protein with fD1 in the absence of a compound (B/Bmax). […]

| SMILES | pIC50 | inhibition at 100 µM [%] | inhibition at 1000 µM [%] |
| --- | --- | --- | --- |
| O=C(O)c1ccccc1C(=O)c1ccc(O)cc1O [C2, 2-(2,4-dihydroxybenzoyl)benzoic acid] | 5.12 | 100 | 100 |
| CCOC(=O)c1ccc2c(c1)C1C=CCC1C(C(=O)O)N2 (stereo not drawn) [C6, 8-(ethoxycarbonyl)-3a,4,5,9b-tetrahydro-3Hcyclopenta[c]quinoline-4-carboxylic acid] | 5.60 | 100 | 100 |
